Source: publication PMC5382548 (Scientific Reports, 2015)
Read-outs that look alike come from different tables or passages of the source.

Tests used:
[1] = system: A594 (lung); assay: SRB short-term cytotoxicity assay, A594; format: cell-based, human; settings: for IC50: Homo sapiens, 96 h
Description: (§1) Short-term anti-proliferative assays were carried out by two different assays using a panel of human cancer and non-malignant human cell lines. […] The transformed human embryonic kidney cell line HEK293T (wt KRAS) was sensitive to all tested drugs, including TMPyP4, a cationic porphyrin established as a G4 ligand, as well as the anticancer drug 5-fluorouracil (5-FU).
(§2) Human cell lines, breast carcinoma (MCF7), lung carcinoma (A549), pancreatic cancer (MIA PaCa2, Panc-1), immortalised telomerase-negative human lung fibroblast (ALT) and normal human lung fibroblast (WI-38), were all purchased from American Type Cell Culture (ATCC). Cell lines were maintained in appropriate medium supplemented with 10% fetal bovine serum (Invitrogen, UK), 2 mM L-glutamine (Invitrogen, Netherlands), and other components as specified by the suppliers. All cell lines were maintained at 37°C, 5% CO2, and routinely passaged. Short-term growth inhibition was measured using the SRB assay as described previously[43] (additional details described in Supplementary Information). […]
(§3) Sulforhodamine B (SRB) short-term cytotoxicity assay
(§4) Cells were seeded at appropriate densities into the wells of 96 well plates in their corresponding medium and incubated overnight to allow the cells to attach. Subsequently cells were exposed to various concentrations of freshly made solutions of drugs and incubated for 96 h. The cells were subsequently fixed with ice-cold trichloacetic acid (TCA) (10%, w/v) for 30 min and stained with 0.4% SRB dissolved in 1% acetic acid for 15 min.
(§5) All incubations were carried out at room temperature except for TCA fixation, which was at 4 °C. The IC50 value, the concentration required to inhibit cell growth by 50%, was determined from the mean absorbance at 540 nm for each drug concentration expressed as a percentage of the control untreated well absorbance. (Performed at School of Pharmacy, University College of London). […]
(#sc-30/sc-126; Santa Cruz Biotechnology Inc., Santa Cruz, CA, USA). Finally, immunoblots were incubated with secondary anti-mouse antibody conjugated with horseradish peroxidase (BioRad) for 3 h at room temperature. The membranes were processed for protein detection using Super Signal substrate (Pierce, Rockford, IL, USA). β-Actin (#A-5441, Sigma–Aldrich) was used as a loading control. Steady-state protein levels were expressed as mean ±SEM from at least three independent experiments.

[2] = system: Panc1 (chemo-resistant pancreatic); assay: SRB short-term cytotoxicity assay, Panc1; format: cell-based; settings: Homo sapiens, PANC-1, 96 h
Description: as §1, §2, §3, §4, §5
(§6) (#sc-30/sc-126; Santa Cruz Biotechnology Inc., Santa Cruz, CA, USA). […]

[3] = system: WI-38 (lung fibroblast); assay: SRB short-term cytotoxicity assay, WI-38; format: cell-based; settings: Homo sapiens, 96 h
Description: as §1, §2, §3, §4, §5, §6

[4] = system: HCT116 (colon); assay: MTS short-term cytotoxicity assay, HCT116; format: cell-based, human
Description: as §1
HCT116 human colon carcinoma cells, SW620 human colorectal adenocarcinoma and HEK293 T human embryonic kidney cells were grown in Dulbecco's modified Eagle's medium (DMEM) supplemented with 10% fetal bovine serum, and 1% antibiotic/antimycotic (Invitrogen, Grand Island, NY, USA) and maintained at 37°C in a humidified atmosphere of 5% CO2. Cells were seeded in 96 well plates at 5.000 cells/well. Twenty-four hours after cell plating, media was removed and replaced with fresh media containing test compounds and 5-FU (Sigma), a common cytotoxic agent used in colon cancer treatmen, or vehicle control (DMSO). Following 72 h of compound exposure, cell viability was evaluated using the CellTiter 96 AQueous Non-Radioactive Cell Proliferation Assay (Promega, Madison, WI, USA), using 3-(4,5-dimethylthiazol-2-yl)-5-(3-carboxymethoxyphenyl)-2-(4-sulfophenyl)-2H-tetrazolium, inner salt (MTS) as previously described. Cell viability data were expressed as mean ± SEM or mean ± SD from at least three independent experiments. IC50 and IC65 values were determined using GaphPad Prism v.5.00 (GraphPad Software). (Performed at Cell Function and Therapeutic Targeting Group, iMed.ULisboa)

[5] = system: human KRAS promoter (pGL-Ras0.5, pGL-Ras2.0); assay: KRAS promoter luciferase reporter assay in HEK293T cells; format: cell-based; settings: equitoxic (IC50) concentrations, 72 h, vs DMSO
Excerpt: A first evaluation of the compounds' ability to down-regulate KRAS gene transcription by directly acting on the KRAS promoter was undertaken with a luciferase reporter assay. For this purpose two different size wild-type promoter constructs were used, containing the G4 sequence and cloned into the Firefly luciferase pGL3 Basic backbone (pGL-Ras0.5, PGL-Ras2.0). These and pGL3 Basic empty (Firefly Luciferase negative control/no promoter) were co-transfected into HEK293T cells together with Renilla luciferase pRL-TK (transfection efficiency normalization) as a G4 negative control. […] In general, the data in Figure 5 clearly portraits a reduction of luciferase activity by ~25–50% when compared to Renilla basal levels induced by all G4 ligands.
Figure 5 KRAS promoter activity is decreased following exposure of HEK293T cells lines to equitoxic (IC50) concentrations of compounds TMPyP4, 2d, 3d and 3e. Cells were co-transfected with pGL3-basic vector (empty vector control), or with KRAS promoter luciferase reporter construct PGL-Ras0.5, or PGL-Ras2.0, together with pRL-TK. Twenty-four h later, cells were replated in 96 wells plates, at 5000 cells per well. […] KRAS promoter activity levels were evaluated by Dual-Luciferase assay 72 h after compound exposure. Results are expressed as the luciferase signal ratio of pGL-Ras2.0 or pGL-Ras0.5 to pGL3-basic vector transfected cells, after normalization with Renilla Luciferase. The results are expressed as the mean ± SEM fold-change compared to DMSO exposure, from three independent experiments. *p < 0.05 and § p < 0.01 from DMSO vehicle control.
HEK293T cells were seeded in 35 mm plates at 150000 cells per well. 24 h later, cells were transiently co-transfected with pGL3-basic vector (empty vector control), or with KRAS promoter luciferase reporter construct pGL-Ras0.5, or pGL-Ras2.0, together with pRL-TK (Promega, Madison, WI, USA). KRAS promotor luciferase reporters respectively harbour 500 bp and 2000 bp of the human KRAS promotor region, and were previously described elsewhere. pGL3 Basic empty was used as negative control, and pRL-TK simultaneously for transfection efficiency normalization and as a G4 negative control. […] Transfections were performed using Lipofectamine 2000 (Invitrogen), according to the manufacturer's instructions. […] Finally, 72 h after compound incubation, cells were lysed and firefly and Renilla luciferase activities were measured using the Dual-Luciferase®Reporter Assay System (Promega). KRAS promoter activity levels were expressed as the luciferase signal ratio of pGL-Ras2.0 or pGL-Ras0.5 to pGL3-basic vector transfected cells, after normalization with Renilla Luciferase. The results are expressed as the mean ± SEM fold-change compared to DMSO exposure, from three independent experiments.

[6] = Homo sapiens, HCT-116, MTS assay, 72 h, read-out: IC50 HCT116

Structure (SMILES) | Selectivity index SI = IC50(WI-38)/IC50(A594) [1] | IC50 [1] | IC50 [2] | IC50 [3] | IC50 [4, 6] | Reduction of KRAS promoter (luciferase) activity [5] | IC50 ([4]; Homo sapiens, HCT-116, 72 h, read-out: IC50 HCT116, MTS assay, 72 h) | IC50 ([4]; read-out: IC50 HCT116, MTS assay, 72 h)
Cn1cc2c3ccccc3nc-2c2cc(Br)ccc21 [2a, 2-bromo-5-methyl-indolo[3,2-c]quinoline] | 9.3 | 670 nM | 2750 nM | 6260 nM | 140 nM |  |  | 
CCN(CC)CCCNc1ccc2[nH]c3c(c[n+](C)c4ccc(NCCCN(CC)CC)cc34)c2c1.[Cl-] [3d] |  |  |  |  | 3460 nM | up to 50% |  | 
CCN(CC)CCCNc1ccc2c(c1)c1[nH]c3ccccc3c1c[n+]2C [2d] |  | 400 nM | 220 nM | 4860 nM | 460 nM | up to 50% |  | 
C[n+]1ccc(-c2c3nc(c(-c4cc[n+](C)cc4)c4ccc([nH]4)c(-c4cc[n+](C)cc4)c4ccc([nH]4)c(-c4cc[n+](C)cc4)c4nc2C=C4)C=C3)cc1 [TMPyP4, reference compound] |  |  |  |  |  | 25% | 12300 nM | 12400 nM
CCN(CC)CCCNc1ccc2c(c1)[nH]c1c2c[n+](C)c2ccc(NCCCN(CC)CC)cc12.[Cl-] [3e] | 7.0 | 1450 nM | 4800 nM | 10100 nM | 1800 nM | up to 50% |  | 
